# Source: US12012467B2, “Small molecule DCN1 inhibitors and therapeutic methods using the same” (THE REGENTS OF THE UNIVERSITY OF MICHIGAN, priority 2017, dated 2024)
# Where a name gives a salt, the structure may show the parent alone. Read-outs that look alike come from different tables or passages of the source. Square brackets hold non-standard residues; d marks the D form. Peptide text beside a SMILES is read from it. * marks the point of attachment. Ala(6-iPr-benzothiazol-2-yl) = CC(C)c1ccc2nc(C[C@H](N)C(=O)O)sc2c1; 2Nal = N[C@@H](Cc1ccc2ccccc2c1)C(=O)O; dLac = C[C@@H](O)C(=O)O; NHBn = c1ccc(CN*)cc1; Propionyl = CCC(=O)*; Tfa = O=C(C(F)(F)F)*; Butyryl = CCCC(=O)*; NHPh = c1ccc(N*)cc1; For = O=C*
# Target: DCN1 (Homo sapiens (Human), UniProt Q96GG9)
# Assay: Competitive FP binding assay
# Procedure: Competitive FP Binding Assay
# The Fluorescence Polarization (FP) competitive binding assays were performed to accurately determine the binding affinities of our DCN1 inhibitors. […] Serial dilutions of proteins were mixed with 46 to a final volume of 200 μl in the assay buffer (100 mM phosphate buffer, pH=6.5, with 0.02% Tween-20 and 2% DMSO). Final probe concentration was 5 nM for both assays. Plates were incubated at room temperature for 30 minutes with gentle shaking to assure equilibrium.
# Pure proteins were derived from the same expression and purification protocols. Plasmids were transformed into Rosetta2 cells, the cells were grown in Terrific Broth at 37° C. to an O.D.600>1.0 and induced with 0.4 mM Isopropyl (3-D-1-thiogalactopyranoside overnight at 20° C. The pelleted cells were resuspended in lysis buffer containing 25 mM Tris-HCl, pH 7.5, 200 mM NaCl and protease inhibitors, sonicated and centrifuged at 34,000×g for 45 minutes to remove debris. Cleared lysate was incubated with Ni-NTA resin (Qiagen) prewashed with lysis buffer, for 1 hr at 4° C. The matrix was loaded into a column then washed with 25 mM Tris-HCl, pH 7.5, 200 mM NaCl and 10 mM imidazole. Protein was eluted with 25 mM Tris-HCl, pH 7.5, 200 mM NaCl and 300 mM imidazole, concentrated and applied to a Superdex 75 (GE Healthcare) column pre-equilibrated with 25 mM Tris pH 7.5, 200 mM NaCl and 1 mM DTT. For DCN2-5, the N-terminal His6 tag was removed prior to gel filtration. Tag removal was achieved through incubation with TEV protease during overnight dialysis against 25 mM Tris pH 7.5, 200 mM NaCl and 1 mM DTT and a second Ni-NTA column. DCN2-5 proteins were stored at −80° C. in 1 mg/mL fractions containing 5% glycerol. The uncleaved DCN1 protein was stored at −80° C. without glycerol.
# [1] = bounds given in μM, read-out: Binding affinity to DCN1 (IC50)
# [2] = read-out: Binding affinity to DCN1 (IC50 (nM))
# DCN1, sequence (Q96GG9 58-259): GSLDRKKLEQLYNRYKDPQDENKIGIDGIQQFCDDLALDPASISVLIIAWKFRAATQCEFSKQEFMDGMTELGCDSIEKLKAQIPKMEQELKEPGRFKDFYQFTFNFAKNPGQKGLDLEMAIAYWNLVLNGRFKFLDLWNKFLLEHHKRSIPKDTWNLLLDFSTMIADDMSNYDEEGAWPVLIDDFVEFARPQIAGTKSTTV
IC50 [2],SMILES,also measured
,CCC(=O)N[C@@H](Cc1nc2ccc(Cl)cc2s1)C(=O)NCc1ccccn1 [Example 251],IC50 [1]: > 5 µM
0.168 µM,CCC(=O)N[C@@H](Cc1nc2ccc(Cl)cc2s1)C(=O)N[C@H](C(=O)N[C@@H](CCCCN)C(=O)N[C@@H]1CCOc2cc(Cl)ccc21)C1CCCC1 [Example 171],
,CCC(=O)N[C@@H](Cc1ccc2ccccc2c1)C(=O)N[C@H](C(=O)N[C@@H](CCCCN)C(=O)NC1CCCCC1)[C@@H](C)CC [Example 8],IC50 [1]: > 3 µM
0.12 µM,CCC(=O)N[C@@H](Cc1nc2ccc(CC)cc2o1)C(=O)N[C@H](C(=O)N[C@@H](CCCCN)C(=O)N[C@@H]1CCOc2ccccc21)C1CCCC1 [Example 195],
,CC[C@H](C)[C@H](NC(=O)[C@@H](N)Cc1ccc2ccccc2c1)C(=O)N[C@@H](CCCCN)C(=O)N[C@@H](CC(C)C)C(N)=O [Example 142] (H-[2Nal]IKL-NH2),IC50 [1]: > 10 µM
0.193 µM,CCC(=O)N[C@@H](Cc1nc2ccc(Cl)cc2s1)C(=O)N[C@H](C(=O)N[C@@H](CCCCN)C(=O)NC(c1ccccc1)c1ccccc1)C1CCCC1 [Example 30],
0.461 µM,CCC(=O)N[C@@H](Cc1ccc2ccccc2c1)C(=O)N[C@H](C(=O)N[C@@H](CCCCN)C(=O)N[C@@H]1CCCc2ccccc21)[C@@H](C)CC [Example 15],
0.943 µM,CCC(=O)N[C@@H](Cc1ccc2ccccc2c1)C(=O)N[C@H](C(=O)N[C@@H](CCCCN)C(=O)N[C@@H](c1ccccc1)c1cn(CCN)nn1)C1CCCC1 [Example 161],
0.139 µM,CC(C)C(=O)N[C@@H](Cc1nc2ccc(C(C)C)cc2s1)C(=O)N[C@H](CN)C1CCCCC1 [Example 263],
0.748 µM,CCC(=O)N[C@@H](Cc1ccc2ccccc2c1)C(=O)N[C@H](C(=O)N[C@@H](CCCCN)C(=O)NC(c1ccc(Cl)cc1)c1ccc(Cl)cc1)[C@@H](C)CC [Example 129],
2.22 µM,CCC(=O)N[C@@H](Cc1nc(C)c(-c2ccc(F)cc2)s1)C(=O)N[C@H](CN)Cc1ccccc1 [Example 100],
0.11 µM,CCC(=O)N[C@@H](Cc1nc2ccc(C(C)C)cc2s1)C(=O)N[C@H](CNC(=O)C1CCN(C(C)C)CC1)C1CCCCC1 [Example 71],
0.483 µM,CCC(=O)N[C@@H](Cc1ccc2ccccc2c1)C(=O)N[C@H](C(=O)N[C@@H](CCCCN(C)C)C(=O)NC(c1ccc(F)cc1)c1ccc(F)cc1)C1CCCC1 [Example 140],
0.346 µM,CCC(=O)N[C@@H](Cc1nc2ccc(Cl)cc2s1)C(=O)N[C@H](CN)C1CCCCC1 [Example 217],
0.0716 µM,CCC(=O)N[C@@H](Cc1nc2ccc(C(C)C)cc2s1)C(=O)N[C@H](CNC(=O)C1CN(C)C1)C1CCCCC1 [Example 69],
,CCC(=O)N[C@@H](Cc1ccc2ccccc2c1)C(=O)N[C@H](C(=O)N[C@@H](CCCCN)C(=O)Nc1ccccc1)[C@@H](C)CC [Example 9] (Propionyl-[2Nal]-Ile-Lys-NHPh),IC50 [1]: > 10 µM
0.0657 µM,CCC(=O)N[C@@H](Cc1nc2ccc(C(C)C)cc2s1)C(=O)N[C@H](CNS(=O)(=O)C1CCN(C)CC1)C1CCCCC1 [Example 76],
3.05 µM,CCC(=O)N[C@@H](Cc1ccc2ccccc2c1)C(=O)N[C@H](C(=O)N[C@@H](CCCCN)C(=O)N[C@H]1CCOc2ccccc21)[C@@H](C)CC [Example 18],
0.203 µM,CCC(=O)N[C@@H](Cc1nc2ccc(Cl)cc2s1)C(=O)N[C@@H](C[C@H]1CC[C@H](CN)CC1)C(=O)N[C@@H](CCCCN)C(=O)N[C@@H]1CCOc2ccccc21 [Example 200],
,CC[C@H](C)[C@H](NC(=O)[C@H](Cc1ccc2ccccc2c1)NC(=O)C(F)(F)F)C(=O)N[C@@H](CCCCN)C(=O)N[C@@H](CC(C)C)C(N)=O [Example 137] (Tfa-[2Nal]IKL-NH2),Binding affinity to DCN1 (IC50 (nM)): precipitation
0.156 µM,CCC(=O)N[C@@H](Cc1nc2ccc(C)cc2s1)C(=O)N[C@H](C(=O)N[C@@H](CCCCN(C)C)C(=O)N[C@@H]1CCOc2ccccc21)C1CCOCC1 [Example 188],
0.0704 µM,"CCC(=O)N[C@@H](Cc1nc2ccc(C(C)C)cc2s1)C(=O)N[C@H](CNC(=O)CN1CCOCC1)C1CCCCC1 [Example 57, (S)—N—((S)-1-cyclohexyl-2-(2-morpholinoacetamido)ethyl)-3-(6-isopropylbenzo[d]thiazol-2-yl)-2-propionamidopropanamide]",
0.123 µM,CCC(=O)N[C@@H](Cc1nc2ccc(Cl)cc2s1)C(=O)N[C@H](C(=O)N[C@@H](CCCCN(C)C)C(=O)N[C@@H]1CCOc2ccccc21)C1CCOCC1 [Example 38],
,CC[C@H](C)[C@H](NC(=O)[C@H](Cc1ccc2ccccc2c1)NC=O)C(=O)N[C@@H](CCCCN)C(=O)N[C@@H](CC(C)C)C(N)=O [Example 143] (For-[2Nal]IKL-NH2),IC50 [1]: > 10 µM

IC50 [2],SMILES,also measured
,CCC(=O)N[C@@H](Cc1nc2ccc(C(C)C)cc2s1)C(=O)N[C@H](C(=O)NCCN1CCOCC1)C1CCNCC1 [Example 265],IC50 [1]: > 10 µM
0.397 µM,CCC(=O)N[C@@H](Cc1nc2ccccc2s1)C(=O)N[C@H](C(=O)N[C@@H](CCCCN)C(=O)NC(c1ccccc1)c1ccccc1)C1CCCC1 [Example 25],
0.244 µM,CCC(=O)N[C@@H](Cc1nc2ccc(Cl)cc2s1)C(=O)N[C@H](CNC(=O)CCN1CCOCC1)Cc1ccccc1 [Example 92],
,CCC(=O)N[C@@H](Cc1nc(C)n(C(C)C)n1)C(=O)N[C@H](CN)Cc1ccccc1 [DI-533],IC50 [1]: > 10 µM
1.74 µM,CCC(=O)N[C@@H](Cc1nc(C)c(-c2ccccc2)s1)C(=O)N[C@H](CN)Cc1ccccc1 [Example 101],
,CC(C)c1ccc2nc(C[C@H](NC(=O)C3CC3)C(=O)NCCN)sc2c1 [Example 96],IC50 [1]: > 10 µM
0.294 µM,CCC(=O)N[C@@H](Cc1nc2ccc(Cl)c(Cl)c2s1)C(=O)N[C@H](CN)Cc1ccccc1 [Example 221],
4.17 µM,CCC(=O)N[C@@H](Cc1cn2cc(Cl)ccc2n1)C(=O)N[C@H](CN)Cc1ccccc1 [Example 108],
,CC[C@H](C)[C@H](NC(=O)[C@H](Cc1ccc2ccccc2c1)NC(=O)[C@@H](C)O)C(=O)N[C@@H](CCCCN)C(=O)N[C@@H](CC(C)C)C(N)=O [Example 167] (H-[dLac][2Nal]IKL-NH2),IC50 [1]: > 10 µM
0.119 µM,CCC(=O)N[C@@H](Cc1nc2ccc(C(C)C)cc2s1)C(=O)N[C@H](CNC(=O)c1nnc[nH]1)C1CCCCC1 [Example 65],
2.14 µM,CCC(=O)N[C@H](CNC(=O)c1ccccn1)Cc1nc2ccc(Cl)cc2s1 [Example 256],
0.875 µM,CCC(=O)N[C@H](CNC(=O)C1(CN)CCCCC1)Cc1nc2ccc(C(C)C)cc2s1 [Example 117],
0.193 µM,CCC(=O)N[C@@H](Cc1ccc2ccccc2c1)C(=O)N[C@H](C(=O)N[C@@H](CCCCN)C(=O)N[C@@H]1CCOc2c(Cl)cccc21)C1CCCC1 [Example 166],
0.299 µM,CCC(=O)N[C@@H](Cc1nc2ccc(Cl)cc2s1)C(=O)N[C@H](C(=O)N[C@@H](CC1CCN(C)CC1)C(=O)N[C@@H]1CCOc2ccccc21)C1CCOCC1 [Example 42],
0.611 ± 0.193 µM,CCC(=O)N[C@@H](Cc1ccc2ccccc2c1)C(=O)N[C@H](C(=O)N[C@@H](CCCCN)C(=O)NC(c1ccccc1)c1ccccc1)[C@@H](C)CC [Example 12],
0.109 µM,CCCC(=O)N[C@@H](Cc1nc2ccc(C(C)C)cc2s1)C(=O)N[C@H](C(=O)N[C@@H](CCCCN)C(=O)N[C@@H](CC(C)C)C(N)=O)[C@@H](C)CC [Example 276] (Butyryl-[Ala(6-iPr-benzothiazol-2-yl)]IKL-NH2),
3.92 µM,CCC(=O)N[C@H](CNC(=O)Nc1ccccc1)Cc1nc2ccc(Cl)cc2s1 [Example 258],
3.9 µM,CCC(=O)N[C@@H](Cc1ccc2ccccc2c1)C(=O)N[C@H](C(=O)N[C@@H](CCCCN)C(=O)NCc1ccccc1)[C@@H](C)CC [Example 10] (Propionyl-[2Nal]-Ile-Lys-NHBn),
0.0938 µM,CCC(=O)N[C@@H](Cc1nc2ccc(C)cc2o1)C(=O)N[C@H](C(=O)N[C@@H](CCCCN)C(=O)N[C@@H]1CCOc2ccccc21)C1CCOCC1 [Example 194],
0.255 ± 0.029 µM,"CC[C@H](C)[C@@H](CN)NC(=O)[C@H](Cc1nc2ccc(C(C)C)cc2s1)NC(=O)C(C)C [Example 50, (S)—N-((2S,3S)-1-amino-3-methylpentan-2-yl)-2-isobutyramido-3-(6-isopropylbenzo[d]thiazol-2-yl)propanamide]",
,CN(C)CCCC[C@H](NC(=O)[C@@H](NC(=O)[C@@H](N)Cc1nc2ccc(Cl)cc2s1)C1CCCC1)C(=O)N[C@@H]1CCOc2ccccc21 [Example 205],IC50 [1]: > 10 µM
,CCC(=O)N[C@@H](Cc1nc2ccc(Cl)cc2s1)C(=O)N[C@@H](C)CN [Example 220],IC50 [1]: > 10 µM
0.572 µM,CCC(=O)N[C@@H](Cc1nc2cc(Cl)ccc2s1)C(=O)N[C@H](C(=O)N[C@@H](CCCCN)C(=O)NC(c1ccccc1)c1ccccc1)C1CCCC1 [Example 29],

SMILES,IC50 [2],also measured
"CCC(=O)N[C@@H](Cc1nc2ccc(C(C)C)cc2s1)C(=O)N[C@H](CN)Cc1ccccc1 [Example 55, (S)—N—((S)-1-amino-3-phenylpropan-2-yl)-3-(6-isopropylbenzo[d]thiazol-2-yl)-2-propionamidopropanamide]",0.179 µM,
